Measured values from PMC12169615, “Fluorescent 4‑Nitrobenzo-2-oxa-1,3-diazole-Coupled Bile Acids as Probe Substrates of Hepatic and Intestinal Bile Acid Transporters of the Solute Carrier Families SLC10 and SLCO” (Journal of Medicinal Chemistry, 2025).

Tests used:
[1] = parameters: method as in Petzinger et al.; conditions: after in situ ileal perfusion, rat, within 120 min; ref Petzinger et al.; cited from earlier work
mouse mAsbt = molecular target: T1, mouse mAsbt (Mus musculus, UniProt P70172); test: cell-based
T1 sequence (P70172 1-348): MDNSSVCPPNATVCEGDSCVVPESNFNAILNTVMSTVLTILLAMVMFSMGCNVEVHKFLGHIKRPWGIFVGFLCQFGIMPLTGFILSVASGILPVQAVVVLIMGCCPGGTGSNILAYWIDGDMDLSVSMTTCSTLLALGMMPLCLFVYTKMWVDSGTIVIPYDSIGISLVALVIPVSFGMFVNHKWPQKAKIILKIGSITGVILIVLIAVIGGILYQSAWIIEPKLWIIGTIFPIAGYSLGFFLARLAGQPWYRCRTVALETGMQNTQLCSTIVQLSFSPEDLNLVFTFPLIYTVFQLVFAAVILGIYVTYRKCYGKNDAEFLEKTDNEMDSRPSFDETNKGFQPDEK
Experimental: (§1) HEK293 cells stably expressing human NTCP (A), mouse mNtcp (B), human ASBT (C), or mouse mAsbt (D) were used for transport experiments with 3α-NBD-GCA (16d) as the substrate. Fluorescence data in the absence of inhibitors were set as 100% and the fluorescence levels in sodium-free transport buffer were set to 0%. […] Half-maximal inhibitory concentrations (IC50) were calculated by nonlinear regression analysis.
(§2) For quantitative transport experiments, cells were seeded onto polylysine-coated 96-well plates and grown to confluence over 72 h at 37 °C. Then, cells were washed three times with phosphate-buffered saline (PBS), containing 137 mM NaCl, 2.7 mM KCl, 1.5 mM, KH2PO4, and 7.3 mM Na2HPO4 (pH 7.4) followed by preincubation in sodium transport buffer (STB) containing 142.9 mM NaCl, 4.7 mM KCl, 1.2 mM MgSO4, 1.2 mM KH2PO4, 1.8 mM CaCl2, and 20 mM HEPES (pH 7.4). For transport assays under sodium-free conditions (-Na^+), sodium chloride of the STB was substituted with equimolar concentrations of choline chloride. […] Then, transport experiments were started by adding 20 μL STB containing 125 μM of 3α-NBD-GCA (final substrate concentration: 25 μM). All transport experiments were stopped after 10 min, if not otherwise indicated, by aspirating the transport buffer and washing the cells twice with ice-cold PBS. […]

human ASBT = molecular target: T2, human ASBT (Homo sapiens, UniProt Q12908); test: cell-based
T2 sequence (Q12908 1-348): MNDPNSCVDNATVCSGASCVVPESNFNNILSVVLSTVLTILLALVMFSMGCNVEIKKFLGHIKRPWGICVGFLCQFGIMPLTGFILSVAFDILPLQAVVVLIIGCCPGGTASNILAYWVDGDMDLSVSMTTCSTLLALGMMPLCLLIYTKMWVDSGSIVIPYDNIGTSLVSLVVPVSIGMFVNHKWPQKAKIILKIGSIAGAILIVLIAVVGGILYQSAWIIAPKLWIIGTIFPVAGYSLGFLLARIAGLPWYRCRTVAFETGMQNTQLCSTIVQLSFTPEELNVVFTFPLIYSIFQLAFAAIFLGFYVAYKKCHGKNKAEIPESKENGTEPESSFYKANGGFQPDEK
Experimental: as §1, §2

IC50 (mouse mAsbt) [µM] | IC50 (human ASBT) [µM] | Structure (SMILES) | Compound secreted into bile [1] [%]
 |  | C[C@H](CCC(=O)NCCS(=O)(=O)O)[C@H]1CC[C@H]2[C@@H]3[C@H](O)C[C@@H]4CC(Nc5ccc([N+](=O)[O-])c6nonc56)CC[C@]4(C)[C@H]3C[C@H](O)[C@]12C (stereo partly drawn) [S4148] | 76
18.9 | 19.5 | Cc1c(C)c2c(c(C)c1O)CCC(C)(COc1ccc(CC3SC(=O)NC3=O)cc1)O2 (stereo not drawn) [troglitazone] | 
